pIC50: −log10 of the molar value. Counter-ions that a name gives are not always drawn. Square brackets hold non-standard residues; d marks the D form. Peptide text beside a SMILES is read from it. * marks the point of attachment. Sta = CC(C)C[C@H](N)[C@@H](O)CC(=O)O; Isovaleryl = CC(C)CC(=O)*

The term pIC50 denotes the negative decadic logarithm of the IC50, by convention in mol/L.

For one experiment, the system named is nephrectomized rats.
Experiment: not given
Particulars: after the injection of hog renin into nephrectomized rats; cited from earlier work.
With `CC(C)CC(=O)N[C@H](C(=O)N[C@H](C(=O)N[C@@H](CC(C)C)[C@@H](O)CC(=O)N[C@@H](C)C(=O)N[C@@H](CC(C)C)[C@@H](O)CC(=O)O)C(C)C)C(C)C` [pepstatin] (Isovaleryl-VV[Sta]A[Sta]-OH), the “effect on blood pressure in vivo” value is listed as “reduces blood pressure”.

The next experiment deals with T1, renin (Homo sapiens, UniProt P00797).
T1 sequence (P00797 67-406): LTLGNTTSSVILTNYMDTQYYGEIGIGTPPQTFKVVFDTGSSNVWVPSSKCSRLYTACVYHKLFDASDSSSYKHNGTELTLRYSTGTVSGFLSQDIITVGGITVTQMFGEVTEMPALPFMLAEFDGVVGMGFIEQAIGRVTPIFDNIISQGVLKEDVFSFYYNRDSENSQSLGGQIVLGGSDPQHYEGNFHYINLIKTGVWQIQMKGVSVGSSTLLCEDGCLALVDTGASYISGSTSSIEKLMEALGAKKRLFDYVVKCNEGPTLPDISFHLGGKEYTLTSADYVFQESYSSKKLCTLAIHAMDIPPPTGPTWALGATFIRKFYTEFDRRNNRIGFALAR
Put plainly: Renin inhibition IC50 (methods of J. Med. Chem., 1985, 28, 1789-1790). Type of experiment: biochemical.
Conditions: not given
An excerpt:
The following examples are intended to be representative and not limiting. IC50 results were obtained according to the methods described in J. Med. Chem., 1985, 28, 1789-1790.
Compound `CC(C)(C)OC(=O)N[C@@H](Cc1ccccc1)C(=O)N[C@@H](Cc1c[nH]cn1)C(=O)N[C@@H](CC1CCCCC1)[C@@H](O)CC(=O)NC1C[N+]2(C)CCC1CC2` (stereo partly drawn) [Example 2, N^α -t-butoxycarbonyl-L-phenylalanyl-L-histidyl-(3S,4S)-4-amino-5-cyclohexyl-3-hydroxy-pentanoyl-1-methylquinuclidium-3-yl amide acetate] showed a pIC50 of 7.42. For the compound `CC(C)(C)OC(=O)N[C@@H](Cc1ccccc1)C(=O)N[C@@H](Cc1c[nH]cn1)C(=O)N[C@@H](CC1CCCCC1)[C@@H](O)CC(=O)NC1C[N+]2(CCCCO)CCC1CC2` (stereo partly drawn) [Example 3, N^α -t-butoxycarbonyl-L-phenylalanyl-L-histidyl(3S,4S)-4-amino-5-cyclohexyl-3-hydroxypentanoyl-1-(4-hydroxybutyl)-quinuclidinium-3-yl amide acetate], the pIC50 was 7.48.

The experiment is the same for the next values; noted with them: renin inhibition; read-out: IC50.
As to `CC(C)(C)OC(=O)N[C@@H](Cc1ccccc1)C(=O)N[C@@H](Cc1c[nH]cn1)C(=O)N[C@@H](CC1CCCCC1)[C@@H](O)CC(=O)NC1CN2CCC1CC2` (stereo partly drawn) [Example 1, N^α -t-butoxycarbonyl-L-phenylalanyl-L-histidyl(3S,4S)-4-amino-5-cyclohexyl-3-hydroxypentanoyl-3-quinuclidinyl amide], the pIC50 was 7.48. As for `CC(C)(C)OC(=O)N[C@@H](Cc1ccccc1)C(=O)N[C@@H](Cc1c[nH]cn1)C(=O)N[C@@H](CC1CCCCC1)[C@@H](O)CC(=O)NC1C[N+]2([O-])CCC1CC2` (stereo partly drawn) [Example 4, N^α -t-butoxycarbonyl-L-phenylalanyl-L-histidyl-(3S,4S)-4-amino-5-cyclohexyl-3-hydroxypentanoyl-quinuclidinium-3-yl-1-oxide amide], the pIC50 is 7.70. On to `CC(C)(C)OC(=O)N[C@@H](Cc1ccccc1)C(=O)N[C@@H](Cc1c[nH]cn1)C(=O)N[C@@H](CC1CCCCC1)[C@@H](O)CC(=O)N1CCSCC1` [Example 5, Boc-Phe-His-ACHPA-4-thiamorpholine], for which the pIC50 is 7.72. On the same count and under the same terms, next, `CC(C)(C)OC(=O)N[C@@H](Cc1ccccc1)C(=O)N[C@@H](Cc1c[nH]cn1)C(=O)N[C@@H](CC1CCCCC1)[C@@H](O)CC(=O)N1CC[S+]([O-])CC1` [Example 6, Boc-Phe-His-ACHPA-4-thiamorpholine-1-oxide]: 7.17. Still for that read-out and setting: next, `CC(C)(C)OC(=O)N[C@@H](Cc1ccccc1)C(=O)N[C@@H](Cc1c[nH]cn1)C(=O)N[C@@H](CC1CCCCC1)[C@@H](O)CC(=O)N1CCS(=O)(=O)CC1` [Example 7, Boc-Phe-His-ACHPA-4-thiamorpholine-1,1-dioxide]: 7.26. The same measure, in the same setting: next, `CC[C@H](C)NC(=O)C[C@H](O)[C@H](CC1CCCCC1)NC(=O)[C@H](Cc1c[nH]cn1)NC(=O)[C@H](Cc1ccccc1)NC(=O)OC(C)(C)C` [Example 9, N^α -t-butoxycarbonyl-L-phenylalanyl-L-histidyl(3S,4S)-4-amino-5-cyclohexyl-3-hydroxypentanoyl-2S-(+)-butyl amide]: 7.49; `CC[C@H](C)[C@@H](CN)NC(=O)C[C@H](O)[C@H](CC1CCCCC1)NC(=O)[C@H](Cc1c[nH]cn1)NC(=O)[C@H](Cc1ccccc1)NC(=O)OC(C)(C)C` [Example 11]: 7.48; `CC[C@H](C)[C@@H](CN(C)C)NC(=O)C[C@H](O)[C@H](CC1CCCCC1)NC(=O)[C@H](Cc1c[nH]cn1)NC(=O)[C@H](Cc1ccccc1)NC(=O)OC(C)(C)C` [Example 12]: 8.30. Turning to `CC(C)C[C@H](NC(=O)[C@H](Cc1ccccc1)NC(=O)[C@H](Cc1ccccc1)NC(=O)OC(C)(C)C)[C@@H](O)CC(=O)N1CCN(c2cccc[n+]2[O-])CC1` [Example 17], the pIC50 was 5.70. Same read-out and setting: the result for `CC[C@H](C)[C@@H](C[N+](C)(C)C)NC(=O)C[C@H](O)[C@H](CC1CCCCC1)NC(=O)[C@H](Cc1c[nH]cn1)NC(=O)[C@H](Cc1ccccc1)NC(=O)OC(C)(C)C` [Example 18, di-acetate salt] reads 7.82; that for `CC[C@H](C)[C@@H](C[N+](C)(C)CCO)NC(=O)C[C@H](O)[C@H](CC1CCCCC1)NC(=O)[C@H](Cc1c[nH]cn1)NC(=O)[C@H](Cc1ccccc1)NC(=O)OC(C)(C)C` [Example 19, acetate salt], 8.00.

Source of the values: US4812442A, “Tripeptide renin inhibitors” (priority 1987, dated 1989).
